Several values for one entry are separate records, joined by “and”; a condition that tells them apart may be missing. Equal entries are not always repeated.
Tests used:
αS aggregation = target: T1, αS aggregation (Homo sapiens, UniProt P37840); assay: SDS-PAGE gel shift assay of soluble and insoluble αS fractions; type: biochemical; conditions: for Total (αS, SDS-PAGE gel shift), Average: average of 3 trials
T1 construct: made in house; host or cells: E. coli BL21(DE3)
Source text: The inhibition of αS aggregation by NS41 was also confirmed by TEM images, which show an abundance (Supplementary Fig. 3a) and low amount (Supplementary Fig. 3b) of αS fibers in the absence and presence of NS41, respectively. We used SDS-PAGE (Sodium dodecyl sulfate polyacrylamide gel electrophoresis) as a complementary assay to validate ThT results and to further characterize the antagonist activity of the monopyridyls against αS aggregation. We used a total of four monopyridyls with varying antagonist activity against αS aggregation for the SDS-PAGE assay. The solutions of αS (±monopyridyls) were centrifuged and the soluble and insoluble fractions were subjected to SDS-PAGE analysis as reported earlier (Fig. 2d, Supplementary Fig. 4a, see details in methods section). The band intensities of the gels in SDS-PAGE assay were quantified using ImageJ software. In the absence of ligands, ~12% of αS was found in the soluble fraction and the rest was found in the insoluble fraction (Fig. 2d, Supplementary Fig. 4a, b). In the presence of NS41 at molar ratios of 1:1 and 2:1 (NS41:αS), 48% and 73% of αS protein were found in the soluble fraction, respectively, and the rest of αS protein was found in the insoluble fraction (Fig. 2d, Supplementary Fig. 4a, b). […] The antagonist activity of the monopyridyls corroborated well from both ThT and the SDS-PAGE assays (Fig. 2a–d, Supplementary Fig. 4a, b). The higher the antagonist activity of monopyridyls against αS aggregation, the lower the ThT intensity and the higher the amount of αS remained in the soluble fraction (Fig. 2a–d, Supplementary Fig. 4a, b). […] It is important to note that NS41 contains a carboxyl (COOH) functional group side chain. […] We have also shown in that work that the foldamer binds to the N-terminus of αS because of its negatively charged COOH functional group interaction with the positively charged lysine residues of αS[24]. […] Additionally, we have also shown that the OPs with the COOH functional group are very effective inhibitors of aggregation of other amyloid proteins that contain lysine amino acid via the formation of salt bridges[30]–[34].
An αS solution (100 µM) was prepared in PBS with or without ligands and shaken ([…], 37 °C) until the fluorescence plateaued, as observed using the ThT aggregation assay, indicative of the aggregation of αS as a control (four days for most experiments unless otherwise mentioned). The solutions were separated into soluble and insoluble fractions by centrifugation at 22,000 × g for 20 min. The fractions were diluted in 2×Laemmli protein sample loading buffer (Containing 2.1% SDS, Bio-rad, Hercules, CA), boiled at 95 °C for 5 min, and ran on a 12% Mini-PROTEAN precast protein gel (Bio-rad, Hercules, CA). The gel was visualized using ChemiDoc MP Imaging System (Bio-rad, Hercules, CA) and band intensity was quantified using Image Lab image acquisition and analysis software (Bio-rad, Hercules, CA). Densitometry values were averaged from three technical replicates and reported with the error bars representing their standard deviations.

[1] = target: T2, αS monomer-αS fibers interaction (Homo sapiens, UniProt P37840); assay: HSQC NMR of 15N-αS monomer with αS fibers with or without NS132; type: binding; conditions: 70 μM 15N-αS + αS fibers, equimolar NS132, 24 h
T2 construct: purchased rpeptide, Bogart, GA
Procedure: We also employed 2D NMR HSQC for atomic-level insights into fibers-catalyzed aggregation of αS and its inhibition by NS132. […] We have also shown that NS132 specifically interacts with the N-terminal residues of αS. […] We incubated preformed fibers of αS with 70 μM ^15N-^1H-uniformly labeled αS monomer and used HSQC NMR to characterize the kinetics of fibers-catalyzed aggregation of αS on a molecular level. […] Also, αS fibers interact specifically with four αS sequences on the N-terminus, including residues 3-23, 40-45, 49-59, and 75-84 (Fig. 4b,c). There was an induction of a secondary structure in the αS monomer, indicated by the spreading of the amide peaks toward the ^1H resonances (Fig. 4c, green). […] Even after 40 h, there were fewer and smaller changes in the volume intensity of the amide peaks of ^15N-^1H-uniformly labeled αS monomer in the presence of NS132 (Fig. 4f).
For the HSQC experiments titrating NS132 into ^15N αS, the same experimental conditions were used as above. Incrementally, NS132 was added to a single ^15N αS solution, mixed, kept at r.t. for 10 min and HSQC was recorded under the conditions stated above. For HSQC experiments containing pre-formed fibrils (PFF) of αS, 5.4 eq. of PFF solution (500 μM) was added to monomeric ^15N αS solution, and the spectra was recorded as previously stated.

amount of αS in the insoluble fraction (αS aggregation; 100 µM αS, four days, equimolar): 14% and 11% | Total (αS, SDS-PAGE gel shift), Average (αS aggregation; NS132 0.2 eq.): 1.493 | Total (αS, SDS-PAGE gel shift), Trial 1-3 (αS aggregation; NS132 0.2 eq., individual trials, Synuclein alone total ~1): 1.48 and 1.6 and 1.4 | Total (αS, SDS-PAGE gel shift), Average (αS aggregation; NS132 1.0 eq.): 1.161 | Total (αS, SDS-PAGE gel shift), Trial 1-3 (αS aggregation; NS132 1.0 eq., individual trials): 1.099 and 1.145 and 1.24 | αS band intensity, Total, Average (αS aggregation; sheet S7B): 99.9667 | αS band intensity, Total (αS aggregation; sheet S7B, individual trials): 92.4 and 101.3 and 106.2 | change in the volume of the amide peaks of 15N-αS monomer with αS fibers, in words [1]: no significant change
Compound: Cc1ccc(NC(=O)c2ccc(NC(=O)c3ccc([N+](=O)[O-])c(NCCc4c[nH]c5ccccc45)n3)c(NCC3CCCCC3)n2)c(OCC(=O)O)n1 [NS132]
distribution of αS between soluble and insoluble fraction, in words (αS aggregation; substoichiometric ratio αS:ligand 1:0.5): predominantly detected in the soluble fraction
